Measurements as given in patent US7998978B2 (Pfizer Inc., priority 2006, dated 2011).

Molecular target: T1, JNK1α1 (Homo sapiens, UniProt P45983)
T1 construct: catalytic domain containing amino acids 1-364 and N-terminal hexahistidine tag; hexahistidine (His6) (N); made in house; host or cells: E. coli BL21 (DE3)
Assay: Coupled spectrophotometric (PK/LDH) JNK1α1 assay: % inhibition and Ki determination
Assay type: biochemical
Conditions: @1 uM; read-out: % Inhibition JNK-1
Outline: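 Initial rates were taken from the absorbance decrease at 340 nm at 30° C. Ki was fitted with a tight-binding model over 11 concentrations (top 100 μM); single-point inhibition was tested at 1 or 10 μM.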

T1 sequence (P45983 1-364): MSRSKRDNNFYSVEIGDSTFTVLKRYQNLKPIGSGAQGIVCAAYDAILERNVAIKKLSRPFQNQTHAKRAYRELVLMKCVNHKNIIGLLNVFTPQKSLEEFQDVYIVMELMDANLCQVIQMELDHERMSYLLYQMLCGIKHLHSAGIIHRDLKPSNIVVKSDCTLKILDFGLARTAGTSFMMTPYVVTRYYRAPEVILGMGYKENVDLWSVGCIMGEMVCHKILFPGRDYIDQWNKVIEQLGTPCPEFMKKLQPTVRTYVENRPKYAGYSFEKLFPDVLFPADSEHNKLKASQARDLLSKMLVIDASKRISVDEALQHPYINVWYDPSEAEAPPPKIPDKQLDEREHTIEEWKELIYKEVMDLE

inhibition at 1 µM [%] | Structure (SMILES)
34 | O=C1NCCN1CCOc1cccc2cnc(N[C@H]3CC[C@H](O)CC3)nc12 [Example 260, 1-[2-({2-[(trans-4-hydroxycyclohexyl)amino]quinazolin-8-yl}oxy)ethyl]imidazolidin-2-one]
47 | COc1ccc(COc2cccc3cnc(N[C@H]4CC[C@H](O)CC4)nc23)cc1OC [Example 265, trans-4-({8-[(3,4-dimethoxybenzyl)oxy]quinazolin-2-yl}amino)cyclohexanol]
14 | CC(COc1cccc2cnc(N[C@H]3CC[C@H](O)CC3)nc12)N(C)C (stereo partly drawn) [Example 266, trans-4-({8-[2-(dimethylamino)propoxy]quinazolin-2-yl}amino)cyclohexanol]
18 | CC1CN(CCOc2cccc3cnc(N[C@H]4CC[C@H](O)CC4)nc23)CC(C)O1 (stereo partly drawn) [Example 267, trans-4-({8-[2-(2,6-dimethylmorpholin-4-yl)ethoxy]quinazolin-2-yl}amino)cyclohexanol]
67 | O[C@H]1CC[C@H](Nc2ncc3ccc(OC4CCOCC4)cc3n2)CC1 [Example 268, trans-4-{[7-(tetrahydro-2H-pyran-4-yloxy)quinazolin-2-yl]amino}cyclohexanol]
29 | CN(C)C(C)(C)COc1ccc2cnc(N[C@H]3CC[C@H](O)CC3)nc2c1 [Example 269, trans-4-({7-[2-(dimethylamino)-2-methylpropoxy]quinazolin-2-yl}amino)cyclohexanol]
40 | CN1CCCC(COc2ccc3cnc(N[C@H]4CC[C@H](O)CC4)nc3c2)C1 (stereo partly drawn) [Example 270, trans-4-({7-[(1-methylpiperidin-3-yl)methoxy]quinazolin-2-yl}amino)cyclohexanol]
41 | CN1CCC(Oc2ccc3cnc(N[C@H]4CC[C@H](O)CC4)nc3c2)CC1 [Example 271, trans-4-({7-[(1-methylpiperidin-4-yl)oxy]quinazolin-2-yl}amino)cyclohexanol]
63 | COCCOc1ccc2cnc(N[C@H]3CC[C@H](O)CC3)nc2c1 [Example 272, trans-4-{[7-(2-methoxyethoxy)quinazolin-2-yl]amino)cyclohexanol]
24 | CN1CCC[C@H]1COc1ccc2cnc(N[C@H]3CC[C@H](O)CC3)nc2c1 [Example 273, trans-4-[(7-{[(2S)-1-methylpyrrolidin-2-yl]methoxy}quinazolin-2-yl)amino]cyclohexanol]
25 | CC(CN1CCOCC1)Oc1ccc2cnc(N[C@H]3CC[C@H](O)CC3)nc2c1 (stereo partly drawn) [Example 274, trans-4-{[7-(1-methyl-2-morpholin-4-ylethoxy)quinazolin-2-yl]amino}cyclohexanol]
52 | CCOCC(C)Oc1ccc2cnc(N[C@H]3CC[C@H](O)CC3)nc2c1 (stereo partly drawn) [Example 275, trans-4-{[7-(2-ethoxy-1-methylethoxy)quinazolin-2-yl]amino}cyclohexanol]
22 | O[C@H]1CC[C@H](Nc2ncc3ccc(OC[C@@H]4CCCN4Cc4ccccc4)cc3n2)CC1 [Example 276, trans-4-[(7-{[(2S)-1-benzylpyrrolidin-2-yl]methoxy}quinazolin-2-yl)amino]cyclohexanol]
46 | O[C@H]1CC[C@H](Nc2ncc3ccc(O[C@H]4CCN(Cc5ccccc5)C4)cc3n2)CC1 [Example 277, trans-4-[(7-{[(3S)-1-benzylpyrrolidin-3-yl]oxy}quinazolin-2-yl)amino]cyclohexanol]
27 | CCN1CCC(Oc2ccc3cnc(N[C@H]4CC[C@H](O)CC4)nc3c2)C1 (stereo partly drawn) [Example 278, trans-4-({7-[(1-ethylpyrrolidin-3-yl)oxy]quinazolin-2-yl}amino)cyclohexanol]
54 | O[C@H]1CC[C@H](Nc2ncc3ccc(OC4CCC(F)(F)CC4)cc3n2)CC1 [Example 279, trans-4-({7-[(4,4-difluorocyclohexyl)oxy]quinazolin-2-yl}amino)cyclohexanol]
37 | O=C1CC[C@@H](COc2ccc3cnc(N[C@H]4CC[C@H](O)CC4)nc3c2)N1 [Example 280, (5S)-5-[({2-[(trans-4-hydroxycyclohexyl)amino]quinazolin-7-yl}oxy)methyl]pyrrolidin-2-one]

inhibition at 1 µM [%] | Structure (SMILES)
72 | CC1(COc2ccc3cnc(N[C@H]4CC[C@H](O)CC4)nc3c2)COC1 [Example 281, trans-4-({7-[(3-methyloxetan-3-yl)methoxy]quinazolin-2-yl}amino)cyclohexanol]
71 | O=C1OCCN1CCOc1ccc2cnc(N[C@H]3CC[C@H](O)CC3)nc2c1 [Example 282, 3-[2-({2-[(trans-4-hydroxycyclohexyl)amino]quinazolin-7-yl}oxy)ethyl]-1,3-oxazolidin-2-one]
33 | O[C@H]1CC[C@H](Nc2ncc3ccc(OC[C@@H]4CCCN5CCCC[C@H]45)cc3n2)CC1 [Example 283, trans-4-({7-[(1R,9aR)-octahydro-2H-quinolizin-1-ylmethoxy]quinazolin-2-yl}amino)cyclohexanol]
53 | O=C1CC[C@H](COc2ccc3cnc(N[C@H]4CC[C@H](O)CC4)nc3c2)N1 [Example 284, (5R)-5-[({2-[(trans-4-hydroxycyclohexyl)amino]quinazolin-7-yl}oxy)methyl]pyrrolidin-2-one]
29 | O[C@H]1CC[C@H](Nc2ncc3ccc(O[C@@H]4CCN(Cc5ccccc5)C4)cc3n2)CC1 [Example 285, trans-4-[(7-{[(3R)-1-benzylpyrrolidin-3-yl]oxy}quinazolin-2-yl)amino]cyclohexanol]
42 | O[C@H]1CC[C@H](Nc2ncc3ccc(OC4CCCN(Cc5ccccn5)C4)cc3n2)CC1 (stereo partly drawn) [Example 286, trans-4-[(7-{[1-(pyridin-2-ylmethyl)piperidin-3-yl]oxy}quinazolin-2-yl)amino]cyclohexanol]
62 | O=C1CN2C[C@@H](Oc3ccc4cnc(N[C@H]5CC[C@H](O)CC5)nc4c3)CC[C@H]2CN1 [Example 287, (7S,9aS)-7-({2-[(trans-4-hydroxycyclohexyl)amino]quinazolin-7-yl}oxy)hexahydro-2H-pyrido[1,2-a]pyrazin-3(4H)-one]
39 | O[C@H]1CC[C@H](Nc2ncc3ccc(OCc4nc5ccccc5[nH]4)cc3n2)CC1 [Example 288, trans-4-{[7-(1H-benzimidazol-2-ylmethoxy)quinazolin-2-yl]amino}cyclohexanol]
69 | CN1C(=O)OC[C@@H]1COc1ccc2cnc(N[C@H]3CC[C@H](O)CC3)nc2c1 [Example 289, 4-[({2-[(trans-4-hydroxycyclohexyl)amino]quinazolin-7-yl}oxy)methyl]-3-methyl-1,3-oxazolidin-2-one]
53 | O[C@H]1CC[C@H](Nc2ncc3ccc(OCC(F)(F)c4ccccn4)cc3n2)CC1 [Example 290, trans-4-{[7-(2,2-difluoro-2-pyridin-2-ylethoxy)quinazolin-2-yl]amino}cyclohexanol]
37 | CO[C@H]1CCCC[C@@H]1Oc1ccc2cnc(N[C@H]3CC[C@H](O)CC3)nc2c1 [Example 291, trans-4-[(7-{[(1S,2S)-2-methoxycyclohexyl]oxy}quinazolin-2-yl)amino]cyclohexanol]
54 | CNC(=O)c1ccc2c(c1)CCO[C@H]2CCOc1ccc2cnc(N[C@H]3CC[C@H](O)CC3)nc2c1 [Example 292, (1S)-1-[2-({2-[(trans-4-hydroxycyclohexyl)amino]quinazolin-7-yl}oxy)ethyl]-N-methyl-3,4-dihydro-1H-isochromene-6-carboxamide]
52 | O[C@H]1CC[C@H](Nc2ncc3ccc(OC4CCN(c5cccnn5)CC4)cc3n2)CC1 [Example 293, trans-4-({7-[(1-pyridazin 3-ylpiperidin-4-yl)oxy]quinazolin-2-yl}amino)cyclohexanol]
24 | O[C@H]1CC[C@H](Nc2ncc3ccc(OC[C@H]4CCCN4Cc4ccccc4)cc3n2)CC1 [Example 294, trans-4-[(7-{[(2R)-1-benzylpyrrolidin-2-yl]methoxy}quinazolin-2-yl)amino]cyclohexanol]
71 | Cc1noc(C)c1COc1ccc2cnc(N[C@H]3CC[C@H](O)CC3)nc2c1 [Example 295, trans-4-({7-[(3,5-dimethylisoxazol-4-yl)methoxy]quinazolin-2-yl}amino)cyclohexanol]
14 | C[C@@H]([C@H](Oc1ccc2cnc(N[C@H]3CC[C@H](O)CC3)nc2c1)c1ccccc1)N(C)C [Example 296, trans-4-[(7-{[(1R,2S)-2-(dimethylamino)-1-phenylpropyl]oxy}quinazolin-2-yl)amino]cyclohexanol]
28 | O[C@H]1CC[C@H](Nc2ncc3ccc(OCc4ccccc4CN4CCCC4)cc3n2)CC1 [Example 297, trans-4-[(7-{[2-(pyrrolidin-1-ylmethyl)benzyl]oxy}quinazolin-2-yl)amino]cyclohexanol]

Same assay, conditions: @10 uM; read-out: % Inhibition JNK-1

inhibition at 10 µM [%] | Structure (SMILES)
42 | CCN(CC)CCOc1cccc2cnc(N[C@H]3CC[C@H](O)CC3)nc12 [Example 261, trans-4-({8-[2-(diethylamino)ethoxy]quinazolin-2-yl}amino)cyclohexanol]
61 | CN1CCC(Oc2cccc3cnc(N[C@H]4CC[C@H](O)CC4)nc23)C1 (stereo partly drawn) [Example 262, trans-4-({8-[(1-methylpyrrolidin-3-yl)oxy]quinazolin-2-yl}amino)cyclohexanol]
31 | O[C@H]1CC[C@H](Nc2ncc3cccc(OC[C@@H]4CCCN5CCCC[C@H]45)c3n2)CC1 [Example 263, trans-4-({8-[(1R, 9aR)-octahydro-2H-quinolizin-1-ylmethoxy]quinazolin-2-yl}amino)cyctohexanol]
46 | CN1CCN(C)C(COc2cccc3cnc(N[C@H]4CC[C@H](O)CC4)nc23)C1 (stereo partly drawn) [Example 264, trans-4-({8-[(1,4-dimethylpiperazin-2-yl)methoxy]quinazolin-2-yl}amino)cyclohexanol]
